US10214542B2, “Modified macrocyclic compounds” (BAYER PHARMA AKTIENGESELLSCHAFT, priority 2015, dated 2019)
Marks after values point to notes of the source that are not given here.

Tests used:
[1] = target: T1, CDK9/CycT1 (Homo sapiens, UniProt P50750); experiment: CDK9/CycT1 high ATP kinase assay (TR-FRET, Method 1b); assay type: biochemical; conditions: 2 mM ATP
T1 construct: Recombinant full-length His-tagged human CDK9 and CycT1; His; purchased Invitrogen PV4131; host or cells: insect cells
T1 sequence (P50750 whole entry): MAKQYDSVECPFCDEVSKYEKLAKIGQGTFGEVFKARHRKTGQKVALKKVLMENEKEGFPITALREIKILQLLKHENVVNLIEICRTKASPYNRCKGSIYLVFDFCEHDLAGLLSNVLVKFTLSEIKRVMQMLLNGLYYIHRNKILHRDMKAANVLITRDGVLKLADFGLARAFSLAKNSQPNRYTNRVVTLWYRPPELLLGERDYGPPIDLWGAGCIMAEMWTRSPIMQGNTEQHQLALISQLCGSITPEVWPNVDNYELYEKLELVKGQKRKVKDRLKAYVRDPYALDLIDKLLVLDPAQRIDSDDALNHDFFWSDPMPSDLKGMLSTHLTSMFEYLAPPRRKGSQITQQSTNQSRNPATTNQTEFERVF
T1 sequence (O60563 whole entry partner): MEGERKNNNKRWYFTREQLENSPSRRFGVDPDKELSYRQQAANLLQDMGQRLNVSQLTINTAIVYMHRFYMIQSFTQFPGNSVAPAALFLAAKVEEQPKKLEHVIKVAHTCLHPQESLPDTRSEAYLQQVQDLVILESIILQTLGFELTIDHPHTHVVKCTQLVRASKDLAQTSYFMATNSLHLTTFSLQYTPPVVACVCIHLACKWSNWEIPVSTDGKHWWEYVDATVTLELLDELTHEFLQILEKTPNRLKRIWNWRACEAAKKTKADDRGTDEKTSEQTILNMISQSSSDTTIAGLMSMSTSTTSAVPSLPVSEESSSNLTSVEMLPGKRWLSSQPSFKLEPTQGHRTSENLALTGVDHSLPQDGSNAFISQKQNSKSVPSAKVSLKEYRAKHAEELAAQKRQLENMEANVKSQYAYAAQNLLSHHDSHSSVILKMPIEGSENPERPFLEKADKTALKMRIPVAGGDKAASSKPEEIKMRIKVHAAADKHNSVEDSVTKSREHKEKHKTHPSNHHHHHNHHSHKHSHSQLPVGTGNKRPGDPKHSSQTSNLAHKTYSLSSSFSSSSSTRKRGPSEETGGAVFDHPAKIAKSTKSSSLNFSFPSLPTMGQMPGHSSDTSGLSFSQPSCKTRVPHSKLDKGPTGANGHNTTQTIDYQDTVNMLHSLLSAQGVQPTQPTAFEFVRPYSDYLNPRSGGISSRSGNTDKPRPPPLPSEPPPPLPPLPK
Protocol: 1b. CDK9/CycT1 High ATP Kinase Assay
CDK9/CycT1-inhibitory activity of compounds of the present invention at a high ATP concentration after preincubation of enzyme and test compounds was quantified employing the CDK9/CycT1 TR-FRET assay as described in the following paragraphs.
Recombinant full-length His-tagged human CDK9 and CycT1, expressed in insect cells and purified by Ni-NTA affinity chromatography, were purchase from Invitrogen (Cat. No PV4131). As substrate for the kinase reaction biotinylated peptide biotin-Ttds-YISPLKSPYKISEG (C-terminus in amid form) was used which can be purchased e.g. from the company JERINI peptide technologies (Berlin, Germany).
For the assay 50 nl of a 100 fold concentrated solution of the test compound in DMSO was pipetted into a black low volume 384 well microtiter plate (Greiner Bio-One, Frickenhausen, Germany), 2 μl of a solution of CDK9/CycT1 in aqueous assay buffer [50 mM Tris/HCl pH 8.0, 10 mM MgCl2, 1.0 mM dithiothreitol, 0.1 mM sodium ortho-vanadate, 0.01% (v/v) Nonidet-P40 (Sigma)] were added and the mixture was incubated for 15 min at 22° C. to allow pre-binding of the test compounds to the enzyme before the start of the kinase reaction. […] The concentration of CDK9/CycT1 was adjusted depending of the activity of the enzyme lot and was chosen appropriate to have the assay in the linear range, typical concentrations were in the range of 0.5 μg/mL. The reaction was stopped by the addition of 5 μl of a solution of TR-FRET detection reagents (0.2 μM streptavidine-XL665 [Cisbio Bioassays, Codolet, France] and 1 nM anti-RB(pSer807/pSer811)-antibody from BD Pharmingen [#558389] and 1.2 nM LANCE EU-W1024 labeled anti-mouse IgG antibody [Perkin-Elmer, product no. AD0077]) in an aqueous EDTA-solution (100 mM EDTA, 0.2% (w/v) bovine serum albumin in 100 mM HEPES pH 7.5).
The resulting mixture was incubated 1 h at 22° C. to allow the formation of complex between the phosphorylated biotinylated peptide and the detection reagents. Subsequently the amount of phosphorylated substrate was evaluated by measurement of the resonance energy transfer from the Eu-chelate to the streptavidine-XL. Therefore, the fluorescence emissions at 620 nm and 665 nm after excitation at 350 nm was measured in a HTRF reader, e.g. a Rubystar (BMG Labtechnologies, Offenburg, Germany) or a Viewlux (Perkin-Elmer). The ratio of the emissions at 665 nm and at […] was taken as the measure for the amount of phosphorylated substrate. The data were normalised (enzyme reaction without inhibitor=0% inhibition, all other assay components but no enzym=100% inhibition).

[2] = target: T2, CDK2/CycE (Homo sapiens, UniProt P24941); experiment: CDK2/CycE high ATP kinase assay (TR-FRET, Method 2b); assay type: biochemical; conditions: 2 mM ATP
T2 construct: GST; purchased ProQinase GmbH (Freiburg, Germany); host or cells: insect cells (Sf9)
Protocol: 2b. CDK2/CycE High ATP Kinase Assay:
CDK2/CycE-inhibitory activity of compounds of the present invention at 2 mM adenosine-tri-phosphate (ATP) was quantified employing the CDK2/CycE TR-FRET (TR-FRET=Time Resolved Fluorescence Resonance Energy Transfer) assay as described in the following paragraphs.
Recombinant fusion proteins of GST and human CDK2 and of GST and human CycE, expressed in insect cells (Sf9) and purified by Glutathion-Sepharose affinity chromatography, were purchase from ProQinase GmbH (Freiburg, Germany). As substrate for the kinase reaction biotinylated peptide biotin-Ttds-YISPLKSPYKISEG (C-terminus in amid form) was used which can be purchased e.g. from the company JERINI peptide technologies (Berlin, Germany).
For the assay 50 nl of a 100 fold concentrated solution of the test compound in DMSO was pipetted into a black low volume 384 well microtiter plate (Greiner Bio-One, Frickenhausen, Germany), 2 μl of a solution of CDK2/CycE in aqueous assay buffer [50 mM Tris/HCl pH 8.0, 10 mM MgCl2, 1.0 mM dithiothreitol, 0.1 mM sodium ortho-vanadate, 0.01% (v/v) Nonidet-P40 (Sigma)] were added and the mixture was incubated for 15 min at 22° C. to allow pre-binding of the test compounds to the enzyme before the start of the kinase reaction. Then the kinase reaction was started by the addition of 3 μl of a solution ATP (3.33 mM=>final conc. in the 5 μl assay volume is 2 mM) and substrate (1.25 μM=>final conc. in the 5 μl assay volume is 0.75 μM) in assay buffer and the resulting mixture was incubated for a reaction time of 25 min at 22° C. The concentration of CDK2/CycE was adjusted depending of the activity of the enzyme lot and was chosen appropriate to have the assay in the linear range, typical concentrations were in the range of 15 ng/ml. The reaction was stopped by the addition of 5 μl of a solution of TR-FRET detection reagents (0.2 μM streptavidine-XL665 [Cisbio Bioassays, Codolet, France] and 1 nM anti-RB(pSer807/pSer811)-antibody from BD Pharmingen [#558389] and 1.2 nM LANCE EU-W1024 labeled anti-mouse IgG antibody [Perkin-Elmer, product no. AD0077, as an alternative a Terbium-cryptate-labeled anti-mouse IgG antibody from Cisbio Bioassays can be used]) in an aqueous EDTA-solution (100 mM EDTA, 0.2% (w/v) bovine serum albumin in 100 mM HEPES pH 7.5).
The resulting mixture was incubated 1 h at 22° C. to allow the formation of complex between the phosphorylated biotinylated peptide and the detection reagents. Subsequently the amount of phosphorylated substrate was evaluated by measurement of the resonance energy transfer from the Eu-chelate to the streptavidine-XL. Therefore, the fluorescence emissions at 620 nm and 665 nm after excitation at 350 nm were measured in a TR-FRET reader, e.g. a Rubystar (BMG Labtechnologies, Offenburg, Germany) or a Viewlux (Perkin-Elmer). The ratio of the emissions at 665 nm and at […] was taken as the measure for the amount of phosphorylated substrate. The data were normalised (enzyme reaction without inhibitor=0% inhibition, all other assay components but no enzym=100% inhibition).

[3] = target: T3, human PTEFb (CDK9/Cyclin T1) (Homo sapiens, UniProt P50750); experiment: Surface Plasmon Resonance PTEFb (Method 8); assay type: binding; conditions: 37° C., experimental parameters E
T3 construct: purchased ProQinase, Freiburg, Germany
T3 sequence (P50750 whole entry): as the sequence (P50750 whole entry) above
T3 sequence (O60563 whole entry partner): as the sequence (O60563 whole entry partner) above

[4] = in vivo; cited from earlier work

IC50 ([1]; Method 1b) [nM]	Selectivity high ATP CDK9 over high ATP CDK2: IC50 (high ATP CDK2)/IC50 (high ATP CDK9) ([1]; Methods 1b and 2b)	IC50 [2] [nM]	Target resident time ([3]; 1/koff)	koff ([3]; read-out: Dissociation rate constant koff) [s⁻¹]	Compound	duration of protection against bronchospasms [4]
3.3	224	742	14.7* min	0.00113	CS(=N)(=O)Cc1cc2cc(c1)Nc1ncc(F)c(n1)-c1ccc(F)cc1OCCCCN2 (racemic) [Example 25, (rac)-16,20-difluoro-9-[(S-methylsulfonimidoyl)methyl]-3,4,5,6-tetrahydro-2H,12H-13,17-(azeno)-11,7-(metheno)-1,6,12,14-benzoxatriazacyclononadecine]	–
–	–	–	–	–	C[N+]1(C)[C@@H]2C[C@@H](OC(=O)C(O)(c3cccs3)c3cccs3)C[C@H]1[C@@H]1O[C@@H]12 [tiotropium]	more than 6 hours
